This test has as its system collagen 1. The experiment in a line: WI-38 collagen 1 inhibition assay (anti-Collagen I immunofluorescence).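 Note: minus sign means inactive.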 Type of test: cell-based. The following applies: cellular EC50, WI-38 human lung fibroblasts, values are LogEC50 classes. As to the method:
WI-38 cells (ATCC® CCL-75™) were maintained in MEM EAGLE (NEAA) W. GLUTAMIN (Biological Industries, Cat. 06-1040-15-1A) containing 10% fetal bovine serum (FBS) and 1% Penicillin-Streptomycin Solution. To synchronize the cells (cell cycle synchronization) prior to induction of collagen synthesis, the cells were starved using DMEM-low glucose supplemented with 0.25% FBS for two hours and then without FBS for 24 hours. To induce collagen synthesis, the cells were treated with a collagen induction cocktail for the indicated time. Compounds were added with induction.
Cells in 96-well or 384-well plates were fixed for 20 min in 4% paraformaldehyde (PFA, ENCO, Cat. sc-281692). Following two washes with 1×PBS, cells were treated with hydrogen peroxide (Acros, Cat: 7722-84-1) for 10 minutes and then washed twice with 1×PBS. Cells were then incubated over-night at 4° C. with Anti-Collagen I (Sigma-Aldrich, Cat: C 2456) antibody and washed three times with 1×PBS. Cell were then incubated with a suitable secondary fluorescently-tagged antibody and nuclei stained with DAPI, for 1 hour, and then washed 3 times with 1×PBS.
Cell images were taken with Operetta (Perkin Elmer, USA), a wide-field fluorescence microscope at 20× magnification. After acquisition, the images were transferred to Columbus software (Perkin-Elmer) for image analysis. In Columbus, cells were identified by their nucleus, using the “Find Nuceli” module and cytoplasm was detected based on the secondary antibody channel. Subsequently, the fluorescent signal was enumerated in the identified cell region. Data was exported to a data analysis and visualization software, Tibco Spotfire, USA.
Regarding `Cc1ncnc(N2CCN(Cc3nc4ccc(C(F)(F)F)cc4[nH]3)CC2)c1C` [Compound 201, 2-((4-(5,6-dimethylpyrimidin-4-yl)piperazin-1-yl)methyl)-6-(trifluoromethyl)-1H-benzo[d]imidazole], the “COL1 Efficacy (LogEC50)” value is recorded as “+++ (+++: <−6)”. The same measure for `Cc1ncnc(N2CCN(Cc3cc4ccccc4[nH]3)CC2)c1C` [Compound 202, 2-((4-(5,6-dimethylpyrimidin-4-yl)piperazin-1-yl)methyl)-1H-indole]: “+++ (+++: <−6)”; for `FC(F)(F)c1ccc2nc(CN3CCN(c4ccncn4)CC3)[nH]c2c1` [Compound 203, 2-((4-(pyrimidin-4-yl)piperazin-1-yl)methyl)-6-(trifluoromethyl)-1H-benzo[d]imidazole]: “++ (++: −5 to −6)”.

`FC(F)(F)c1ccc2nc(CN3CCN(c4ccncc4)CC3)[nH]c2c1` [Compound 209, 2-((4-(pyridin-4-yl)piperazin-1-yl)methyl)-6-(trifluoromethyl)-1H-benzo[d]imidazole]: the “COL1 Efficacy (LogEC50)” value was “+ (+: >−5)”.

As to `Cc1ncnc(N2CCN(Cc3cc4cc(Cl)ccc4[nH]3)CC2)c1C` [Compound 210, 5-chloro-2-((4-(5,6-dimethylpyrimidin-4-yl)piperazin-1-yl)methyl)-1H-indole], the “COL1 Efficacy (LogEC50)” value is reported as “+++ (+++: <−6)”. In the case of `CCc1cncnc1N1CCN(Cc2nc3ccc(Cl)cc3[nH]2)CC1` [Compound 211, 6-chloro-2-((4-(5-ethylpyrimidin-4-yl)piperazin-1-yl)methyl)-1H-benzo[d]imidazole] it was “+++ (+++: <−6)”; in that of `c1ccc2[nH]c(CN3CCN(c4ccncc4)CC3)cc2c1` [Compound 212, 2-((4-(pyridin-4-yl)piperazin-1-yl)methyl)-1H-indole], “+++ (+++: <−6)”. In the case of `c1ccc2[nH]c(CN3CCN(c4ccncn4)CC3)cc2c1` [Compound 213, 2-((4-(pyrimidin-4-yl)piperazin-1-yl)methyl)-1H-indole] it was “+++ (+++: <−6)”. For the compound `c1ccc(N2CCN(Cc3cc4ccccc4[nH]3)CC2)nc1` [Compound 216, 2-[[4-(2-pyridyl)piperazin-1-yl]methyl]-1H-indole], the “COL1 Efficacy (LogEC50)” value is “+ (+: >−5)”. In the case of `c1cncc(N2CCN(Cc3cc4ccccc4[nH]3)CC2)c1` [Compound 217, 2-[[4-(3-pyridyl)piperazin-1-yl]methyl]-1H-indole] it was “+ (+: >−5)”; in that of `c1cncc(CN2CCN(Cc3cc4ccccc4[nH]3)CC2)c1` [Compound 218, 2-[[4-(3-pyridylmethyl)piperazin-1-yl]methyl]-1H-indole], “+ (+: >−5)”.

Consider `Cc1cc(N2CCN(Cc3cc4ccccc4[nH]3)CC2)ccn1` [Compound 221, 2-[[4-(2-methyl-4-pyridyl)piperazin-1-yl]methyl]-1H-indole], for which the “COL1 Efficacy (LogEC50)” value is given as “−”.

Turning to `Cc1cnccc1N1CCN(Cc2cc3ccccc3[nH]2)CC1` [Compound 222, 2-[[4-(3-methyl-4-pyridyl)piperazin-1-yl]methyl]-1H-indole], the “COL1 Efficacy (LogEC50)” value is on record as “++ (++: −5 to −6)”. The same measure for `FC(F)(F)c1cccnc1N1CCN(Cc2cc3ccccc3[nH]2)CC1` [Compound 225, 2-[[4-[3-(trifluoromethyl)-2-pyridyl]piperazin-1-yl]methyl]-1H-indole]: “+ (+: >−5)”; for `CN1CCC(N2CCN(Cc3cc4ccccc4[nH]3)CC2)CC1` [Compound 227, 2-[[4-(1-methyl-4-piperidyl)piperazin-1-yl]methyl]-1H-indole]: “−”; for `c1ccc2[nH]c(CN3CCN(c4nccs4)CC3)cc2c1` [Compound 229, 2-[4-(1H-indol-2-ylmethyl)piperazin-1-yl]thiazole]: “++ (++: −5 to −6)”. In the case of `CCCN1CCN(Cc2cc3ccccc3[nH]2)CC1` [Compound 230, 2-[(4-propylpiperazin-1-yl)methyl]-1H-indole] it was “+ (+: >−5)”; in that of `O=C(c1cccnc1)N1CCN(Cc2cc3ccccc3[nH]2)CC1` [Compound 231, [4-(1H-indol-2-ylmethyl)piperazin-1-yl]-(3-pyridyl)methanone], “−”. In the case of `O=C(C1CCCCC1)N1CCN(Cc2cc3ccccc3[nH]2)CC1` [Compound 232, Cyclohexyl-[4-(1H-indol-2-ylmethyl)piperazin-1-yl]methanone] it was “++ (++: −5 to −6)”; in that of `c1ccc2[nH]c(CN3CCN(C4CCCC4)CC3)cc2c1` [Compound 233, 2-[(4-cyclopentylpiperazin-1-yl)methyl]-1H-indole], “+ (+: >−5)”. As to `c1ccc2[nH]c(CN3CCN(c4nccc5occc45)CC3)cc2c1` [Compound 235, 4-[4-(1H-indol-2-ylmethyl)piperazin-1-yl]furo[3,2-c]pyridine], the “COL1 Efficacy (LogEC50)” value is “+ (+: >−5)”. Turning to `c1ccc2[nH]c(CN3CCN(c4ccnc5ccccc45)CC3)cc2c1` [Compound 236, 4-[4-(1H-indol-2-ylmethyl)piperazin-1-yl]quinolone], the “COL1 Efficacy (LogEC50)” value was “++ (++: −5 to −6)”. For the compound `c1ccc2nc(N3CCN(Cc4cc5ccccc5[nH]4)CC3)ccc2c1` [Compound 237, 2-[4-(1H-indol-2-ylmethyl)piperazin-1-yl]quinolone], the “COL1 Efficacy (LogEC50)” value is “++ (++: −5 to −6)”. In the case of `Cc1cccnc1N1CCN(Cc2cc3ccccc3[nH]2)CC1` [Compound 238, 2-[[4-(3-methyl-2-pyridyl)piperazin-1-yl]methyl]-1H-indole] it was “++ (++: −5 to −6)”. In the case of `CC(C)CC(=O)N1CCN(Cc2cc3ccccc3[nH]2)CC1` [Compound 239, 1-[4-(1H-indol-2-ylmethyl)piperazin-1-yl]-3-methyl-butan-1-one] it was “++ (++: −5 to −6)”. For the compound `c1ccc2[nH]c(CN3CCN(c4ccc5cn[nH]c5c4)CC3)cc2c1` [Compound 286, 6-(4-((1H-indol-2-yl)methyl)piperazin-1-yl)-1H-indazole], the “COL1 Efficacy (LogEC50)” value is reported as “−”.

As for `FC(F)(F)c1ccc2nc(CN3CCN(c4ccccc4)CC3)[nH]c2c1` [compound 200], the “COL1 Efficacy (LogEC50)” value is on record as “−”. The same measure for `Cc1ncnc(N2CCN(Cc3[nH]c4ccc(Cl)cc4c3C)CC2)c1C` [compound 204]: “++ (++: −5 to −6)”.

For `Cc1cc2c(N3CCN(Cc4nc5ccccc5[nH]4)CC3)ncnc2s1` [compound 205], the “COL1 Efficacy (LogEC50)” value is “++ (++: −5 to −6)”. The same measure for `c1ccc(-c2nc3c(c(N4CCN(Cc5cc6ccccc6[nH]5)CC4)n2)CCC3)cc1` [compound 207]: “++ (++: −5 to −6)”; for `c1ccc2[nH]c(CN3CCN(c4cc(-n5cccn5)ncn4)CC3)nc2c1` [compound 208]: “++ (++: −5 to −6)”. As for `CCc1cncnc1N1CCN(Cc2nc3ccc(C(F)(F)F)cc3[nH]2)CC1` [compound 214], the “COL1 Efficacy (LogEC50)” value is “+++ (+++: <−6)”. The same measure for `Brc1ccc2[nH]c(CN3CCN(c4ccncc4)CC3)cc2c1` [compound 215, 5-bromo-2-[[4-(4-pyridyl)piperazin-1-yl]methyl]-1H-indole]: “−”; for `c1ccc(-c2ccc3[nH]c(CN4CCN(c5ccncc5)CC4)cc3c2)cc1` [compound 219, 5-phenyl-2-[[4-(4-pyridyl)piperazin-1-yl]methyl]-1H-indole]: “−”; for `c1cncc(-c2ccc3[nH]c(CN4CCN(c5ccncc5)CC4)cc3c2)c1` [compound 220, 5-(3-pyridyl)-2-[[4-(4-pyridyl)piperazin-1-yl]methyl]-1H-indole]: “−”.

For the compound `COc1ccc2[nH]c(CN3CCN(c4ccncc4)CC3)cc2c1` [compound 223, 5-methoxy-2-[[4-(4-pyridyl)piperazin-1-yl]methyl]-1H-indole], the “COL1 Efficacy (LogEC50)” value was “−”. In the case of `Brc1ccc2cc(CN3CCN(c4ccncc4)CC3)[nH]c2c1` [compound 224, 6-bromo-2-[[4-(4-pyridyl)piperazin-1-yl]methyl]-1H-indole] it was “+ (+: >−5)”. As for `FC(F)(F)c1ccc2[nH]c(CN3CCN(c4ccncc4)CC3)cc2c1` [compound 226, 2-[[4-(4-pyridyl)piperazin-1-yl]methyl]-5-(trifluoromethyl)-1H-indole], the “COL1 Efficacy (LogEC50)” value is reported as “+ (+: >−5)”. Consider `COc1ccc2cc(CN3CCN(c4ccncc4)CC3)[nH]c2c1` [compound 228, 6-methoxy-2-[[4-(4-pyridyl)piperazin-1-yl]methyl]-1H-indole], for which the “COL1 Efficacy (LogEC50)” value is given as “+ (+: >−5)”.

Take `c1ccc2[nH]c(CN3CCN(c4nccc5ccccc45)CC3)cc2c1` [compound 234]: the “COL1 Efficacy (LogEC50)” value was “+ (+: >−5)”. In the case of `Clc1ccc2cc(CN3CCN(c4ccncc4)CC3)[nH]c2c1` [compound 240, 6-chloro-2-[[4-(4-pyridyl)piperazin-1-yl]methyl]-1H-indole] it was “+ (+: >−5)”; in that of `c1ccc(N2CCN(Cc3cc4ccccc4[nH]3)CC2)cc1` [compound 241, 2-[(4-phenylpiperazin-1-yl)methyl]-1H-indole], “++ (++: −5 to −6)”.

(Values after patent US20230150980A1, “COLLAGEN 1 TRANSLATION INHIBITORS AND METHODS OF USE THEREOF” (Anima Biotech Inc., priority 2020, published 2023).)
